Experimental data reported in US9023851B2 (Merck Patent GmbH, priority 2010, dated 2015).
Blank lines part the entries; values can stand above or below the compound they belong to.

Experiments:
Format in all cases: biochemical
ZAP-70 = target: T1, ZAP-70 (Homo sapiens, UniProt P43403); assay: Zap70 enzymatic assay (Caliper LifeSciences technology)
T1 construct: purchased BPS Bioscience, CA, USA
T1 sequence (P43403 1-619): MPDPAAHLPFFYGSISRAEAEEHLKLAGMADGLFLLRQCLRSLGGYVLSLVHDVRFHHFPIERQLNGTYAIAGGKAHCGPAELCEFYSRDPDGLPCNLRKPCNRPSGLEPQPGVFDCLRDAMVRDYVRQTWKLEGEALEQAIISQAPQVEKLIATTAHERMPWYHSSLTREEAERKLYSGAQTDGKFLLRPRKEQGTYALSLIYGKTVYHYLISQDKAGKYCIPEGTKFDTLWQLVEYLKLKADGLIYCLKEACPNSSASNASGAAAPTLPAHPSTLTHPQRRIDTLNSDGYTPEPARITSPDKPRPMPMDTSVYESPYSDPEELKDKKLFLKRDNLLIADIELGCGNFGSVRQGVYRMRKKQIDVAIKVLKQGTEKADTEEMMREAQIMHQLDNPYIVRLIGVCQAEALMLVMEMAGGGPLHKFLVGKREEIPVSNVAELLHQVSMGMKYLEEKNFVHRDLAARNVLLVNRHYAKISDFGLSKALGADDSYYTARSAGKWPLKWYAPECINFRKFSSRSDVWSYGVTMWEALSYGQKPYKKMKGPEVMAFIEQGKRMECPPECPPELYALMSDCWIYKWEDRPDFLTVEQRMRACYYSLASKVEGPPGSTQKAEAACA
Experimental: (§1) Enzymatic Assays Using the Caliper LifeSciences Technology
(§2) The assays described here are performed on the Caliper Life Sciences LC3000 system This technology provides data on enzyme activity via measurement of the relative amounts of phosphorylated or unphosphorylated fluorescently labelled substrate peptide at the end of an enzymatic reaction. These different states of peptide are resolved by applying a potential difference across the sample. The presence of the charged phosphate group on the product (as opposed to the substrate) causes a different peptide mobility between the two peptides. This is visualized by excitation of the fluorescent label on the substrate and product peptides and represented as peaks within the analysis software.
(§3) In order to measure inhibitor activity of kinase inhibitors on this technology, a TTP Mosquito liquid handling instrument is used to place 0.25 ul of the appropriate concentration of inhibitor in 100% DMSO (for a dose response curve calculation) into each well of a 384-well plate. To this reaction components are added to a final volume of 25 ul. The table below indicates the sequences and concentrations for the assays described in this report. Standard components are 1 mM DTT (Sigma, D0632), 1 mM MgCl2 (Sigma, M1028), 100 mM HEPES pH 7.5 (Calbiochem, 391338), 0.015% Brij-35 (Sigma, B4184).
(§4) The reaction is incubated for 90 min at 25 C, and then stopped by the addition of 70 ul of Stop buffer (100 mM HEPES pH 7.5, 0.015% Brij-35, 10 mM EDTA (Sigma, E7889)).
(§5) The plate is read on a Caliper LC 3000 in an Off-Chip mobility shift assay format, on a 12-sipper chip. Unphosphorylated substrate and phosphorylated product peptide resolve as separate peaks allowing direct measurement of percentage of conversion of substrate to product. The percent conversion can be plotted against concentration of inhibitor to produce a sigmoidal dose response curve, from which an IC50 can be calculated using GeneData Condoseo or a similar product. Cellular activity assays

Syk = target: T2, Syk (Homo sapiens, UniProt P43405); assay: Syk enzyme assay (flash plate / Caliper mobility shift)
T2 construct: purchased BPS Bioscience, CA, USA
Experimental: The kinase assay is performed either as 384-well Flashplate assay (for e.g. Topcount measurement) or as 384-well Image-Flashplate assay (for LEADseeker measurement).
2.5 nM SYK, 400 nM Biotin-Aha-Aha-[…] and 10 μM ATP (spiked with 0.3 μCi 33P-ATP/well) are incubated in a total volume of 50 μl (60 mM Hepes, 10 mM MgCl2, 1.2 mM Dithiothreitol, 0.02% Brij35, 0.1% BSA, pH 7.5) with or without test compound for 1 hours at 30° C. The reaction is stopped with 25 μl 200 mM EDTA. After 30 Min at 30° C. the liquid is removed and each well washed thrice with 100 μl 0.9% sodium chloride solution. Non-specific reaction is determined in presence of 0.1 μM Staurosporine. Radioactivity is measured with Topcount (when using Flashplates) or with LEADseeker (when using Image-Flashplates) respectively. Results (e.g. IC50-values) are calculated with program tools provided by the IT-department (e.g. Symyx Assay Explorer, Genedata Screener).
as §1, §2, §3, §4, §5

Src = target: T3, Src (Homo sapiens, UniProt P12931); assay: cSrc enzymatic assay (Caliper LifeSciences technology)
T3 construct: purchased Carna Bioscience, Kobe, Japan
T3 sequence (P12931 whole entry): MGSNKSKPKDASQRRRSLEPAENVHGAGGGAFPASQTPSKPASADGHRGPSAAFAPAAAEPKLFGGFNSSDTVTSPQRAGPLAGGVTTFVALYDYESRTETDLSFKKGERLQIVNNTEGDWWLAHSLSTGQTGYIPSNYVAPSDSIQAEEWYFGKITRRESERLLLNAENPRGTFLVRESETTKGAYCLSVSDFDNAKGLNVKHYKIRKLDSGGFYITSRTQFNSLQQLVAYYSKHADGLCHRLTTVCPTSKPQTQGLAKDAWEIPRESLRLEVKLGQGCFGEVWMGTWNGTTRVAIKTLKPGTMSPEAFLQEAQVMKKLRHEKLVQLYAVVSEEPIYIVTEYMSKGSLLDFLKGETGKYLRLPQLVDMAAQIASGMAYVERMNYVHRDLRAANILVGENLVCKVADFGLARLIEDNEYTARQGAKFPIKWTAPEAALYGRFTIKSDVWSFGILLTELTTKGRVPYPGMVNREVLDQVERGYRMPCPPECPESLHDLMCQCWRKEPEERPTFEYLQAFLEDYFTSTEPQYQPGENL
Experimental: as §1, §2, §3, §4, §5

KDR = target: T4, KDR (Homo sapiens, UniProt P35968); assay: KDR enzymatic assay (Caliper LifeSciences technology)
T4 construct: purchased BPS Bioscience, CA, USA
T4 sequence (P35968 20-1356): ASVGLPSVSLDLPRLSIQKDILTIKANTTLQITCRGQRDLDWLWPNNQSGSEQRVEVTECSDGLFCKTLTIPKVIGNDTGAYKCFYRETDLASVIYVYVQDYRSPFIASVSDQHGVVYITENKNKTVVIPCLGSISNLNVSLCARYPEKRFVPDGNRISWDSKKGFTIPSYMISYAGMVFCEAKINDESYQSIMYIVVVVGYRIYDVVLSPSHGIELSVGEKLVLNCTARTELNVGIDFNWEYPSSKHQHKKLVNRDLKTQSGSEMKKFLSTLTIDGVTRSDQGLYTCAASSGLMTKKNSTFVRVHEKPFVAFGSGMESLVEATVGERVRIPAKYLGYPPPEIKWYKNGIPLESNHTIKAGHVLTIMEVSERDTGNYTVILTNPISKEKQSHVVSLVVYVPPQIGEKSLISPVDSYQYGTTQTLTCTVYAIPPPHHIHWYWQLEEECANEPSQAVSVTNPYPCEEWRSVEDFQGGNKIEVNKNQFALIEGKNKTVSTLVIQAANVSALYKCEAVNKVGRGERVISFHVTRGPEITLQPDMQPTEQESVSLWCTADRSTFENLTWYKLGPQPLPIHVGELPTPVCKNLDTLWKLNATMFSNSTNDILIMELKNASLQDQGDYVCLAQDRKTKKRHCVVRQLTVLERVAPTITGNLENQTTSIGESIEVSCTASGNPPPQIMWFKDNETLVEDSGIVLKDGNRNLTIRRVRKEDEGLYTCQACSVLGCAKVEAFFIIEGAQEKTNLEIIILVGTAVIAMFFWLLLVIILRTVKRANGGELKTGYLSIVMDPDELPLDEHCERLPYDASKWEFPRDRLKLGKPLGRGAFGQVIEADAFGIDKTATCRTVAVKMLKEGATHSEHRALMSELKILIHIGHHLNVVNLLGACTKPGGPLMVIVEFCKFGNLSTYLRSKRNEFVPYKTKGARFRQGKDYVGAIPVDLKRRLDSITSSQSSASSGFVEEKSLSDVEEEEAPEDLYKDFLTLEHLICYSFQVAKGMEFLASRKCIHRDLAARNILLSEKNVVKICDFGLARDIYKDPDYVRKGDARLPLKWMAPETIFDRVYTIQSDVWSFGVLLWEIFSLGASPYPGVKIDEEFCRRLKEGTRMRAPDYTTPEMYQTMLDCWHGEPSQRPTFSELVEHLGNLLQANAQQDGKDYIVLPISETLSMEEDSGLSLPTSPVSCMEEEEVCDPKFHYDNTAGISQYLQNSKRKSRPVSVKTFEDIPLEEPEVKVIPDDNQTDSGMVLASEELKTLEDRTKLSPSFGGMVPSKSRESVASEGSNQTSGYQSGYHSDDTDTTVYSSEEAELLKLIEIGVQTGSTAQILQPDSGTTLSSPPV
Experimental: as §1, §2, §3, §4, §5

Structure (SMILES): Cc1cc(C)cc(Nc2nc3c(NCCCN4CCOCC4)nccn3n2)c1 [Example C28, N^2-(3,5-Dimethyl-phenyl)-N^8-(3-morpholin-4-yl-propyl)-[1,2,4]triazolo[1,5-a]pyrazine-2,8-diamine]
IC50 (Syk): 3 to 50 µM
IC50 (Src): 3 to 50 µM
IC50 (KDR): 0.3 to 3 µM

Structure (SMILES): COc1cc(Nc2nc3c(Cl)nccn3n2)cc(OC)c1 [Example B2, 8-Chloro-[1,2,4]triazolo[1,5-a]pyrazin-2-yl-(3,5-dimethoxy-phenyl)-amine]
IC50 (Syk): 3 to 50 µM
IC50 (Src): 3 to 50 µM

Structure (SMILES): COCCCNc1nccn2nc(Nc3cc(OC)cc(OC)c3)nc12 [Example C40, N^2-(3,5-Dimethoxy-phenyl)-N^8-(3-methoxy-propyl)-[1,2,4]triazolo[1,5-a]pyrazine-2,8-diamine]
IC50 (Syk): 3 to 50 µM
IC50 (Src): 3 to 50 µM
IC50 (KDR): 3 to 50 µM

Structure (SMILES): COc1cc(Nc2nc3c(NCCCN(C)C)nccn3n2)cc(OC)c1 [Example C38, N^2-(3,5-Dimethoxy-phenyl)-N^8-(3-dimethylamino-propyl)-[1,2,4]triazolo[1,5-a]pyrazine-2,8-diamine]
IC50 (Syk): 3 to 50 µM
IC50 (Src): 3 to 50 µM
IC50 (KDR): 3 to 50 µM

Structure (SMILES): c1ccc(Nc2nc3c(-c4cccnc4)nccn3n2)cc1 [Example C22, Phenyl-(8-pyridin-3-yl-[1,2,4]triazolo[1,5-a]pyrazin-2-yl)-amine]
IC50 (Syk): 3 to 50 µM
IC50 (Src): 3 to 50 µM
IC50 (KDR): 0.3 to 3 µM

Structure (SMILES): COc1cc(Nc2nc3c(NCCCN4CCOCC4)nccn3n2)cc(OC)c1 [Example C39, N^2-(3,5-Dimethoxy-phenyl)-N^8-(3-morpholin-4-yl-propyl)-[1,2,4]triazolo[1,5-a]pyrazine-2,8-diamine]
IC50 (Syk): 3 to 50 µM
IC50 (Src): 3 to 50 µM
IC50 (KDR): 3 to 50 µM

Structure (SMILES): COc1cc(Nc2nc3c(NCCCN4CCN(C)CC4)nccn3n2)cc(OC)c1 [Example C30, N^2-(3,5-Dimethoxy-phenyl)-N^8-[3-(4-methyl-piperazin-1-yl)-propyl]-[1,2,4]triazolo[1,5-a]pyrazine-2,8-diamine]
IC50 (Syk): 3 to 50 µM
IC50 (Src): 3 to 50 µM
IC50 (KDR): 3 to 50 µM

Structure (SMILES): Cc1cc(C)cc(Nc2nc3c(-c4ccc(N5CCOCC5)cc4)nccn3n2)c1 [Example C11, (3,5-Dimethyl-phenyl)-[8-(4-morpholin-4-yl-phenyl)-[1,2,4]triazolo[1,5-a]pyrazin-2-yl]-amine]
IC50 (Syk): 3 to 50 µM
IC50 (Src): 3 to 50 µM
IC50 (KDR): 3 to 50 µM

Structure (SMILES): CN(C)CCCNc1nccn2nc(Nc3ccccc3)nc12 [Example C50, N^8-(3-Dimethylamino-propyl)-N^2-phenyl-[1,2,4]triazolo[1,5-a]pyrazine-2,8-diamine]
IC50 (ZAP-70): 3 to 50 µM
IC50 (Syk): 3 to 50 µM
IC50 (KDR): 3 to 50 µM

Structure (SMILES): CN(C)CCCNc1nccn2nc(Nc3cccc(C(F)(F)F)c3)nc12 [Example C33, N^8-(3-Dimethylamino-propyl)-N^2-(3-trifluoromethyl-phenyl)-[1,2,4]triazolo[1,5-a]pyrazine-2,8-diamine]
IC50 (Syk): 3 to 50 µM
IC50 (Src): 3 to 50 µM
IC50 (KDR): 3 to 50 µM

Structure (SMILES): COc1cc(Nc2nc3c(NCCN)nccn3n2)cc(OC)c1 [Example C29, N^8-(2-Amino-ethyl)-N^2-(3,5-dimethoxy-phenyl)-[1,2,4]triazolo[1,5-a]pyrazine-2,8-diamine]
IC50 (Syk): 3 to 50 µM
IC50 (Src): 3 to 50 µM
IC50 (KDR): 3 to 50 µM

Continued, values first:

IC50 (ZAP-70): 3 to 50 µM
IC50 (Syk): 3 to 50 µM
IC50 (Src): 3 to 50 µM
IC50 (KDR): 3 to 50 µM
Structure (SMILES): COCCCNc1nccn2nc(Nc3cccc(C)c3)nc12 [Example C32, N^8-(3-Methoxy-propyl)-N^2-m-tolyl-[1,2,4]triazolo[1,5-a]pyrazine-2,8-diamine]

IC50 (ZAP-70): 3 to 50 µM
IC50 (Syk): 3 to 50 µM
IC50 (Src): 3 to 50 µM
IC50 (KDR): 3 to 50 µM
Structure (SMILES): Cc1cccc(Nc2nc3c(NCCCN4CCOCC4)nccn3n2)c1 [Example C47, N^8-(3-Morpholin-4-yl-propyl)-N^2-m-tolyl-[1,2,4]triazolo[1,5-a]pyrazine-2,8-diamine]

IC50 (Syk): 3 to 50 µM
IC50 (Src): 3 to 50 µM
IC50 (KDR): 3 to 50 µM
Structure (SMILES): Cc1cccc(Nc2nc3c(NCCCN(C)C)nccn3n2)c1 [Example C46, N^8-(3-Dimethylamino-propyl)-N^2-m-tolyl-[1,2,4]triazolo[1,5-a]pyrazine-2,8-diamine]

IC50 (ZAP-70): 0.3 to 3 µM
IC50 (Syk): < 0.3 µM
IC50 (Src): 0.3 to 3 µM
IC50 (KDR): < 0.3 µM
Structure (SMILES): Oc1cccc(-c2nccn3nc(Nc4ccc(N5CCOCC5)cc4)nc23)c1 [Example C269, 3-[2-(4-Morpholin-4-yl-phenylamino)-[1,2,4]triazolo[1,5-a]pyrazin-8-yl]-phenol]

IC50 (ZAP-70): 3 to 50 µM
IC50 (Syk): 0.3 to 3 µM
IC50 (Src): 3 to 50 µM
IC50 (KDR): 0.3 to 3 µM
Structure (SMILES): Cn1ccnc1Sc1ccc(Nc2nc3c(-c4ccccc4)nccn3n2)cc1Cl [Example C23, [3-Chloro-4-(1-methyl-1H-imidazol-2-ylsulfanyl)-phenyl]-(8-phenyl-[1,2,4]triazolo[1,5-a]pyrazin-2-yl)-amine]

IC50 (ZAP-70): 3 to 50 µM
IC50 (Syk): < 0.3 µM
IC50 (Src): 0.3 to 3 µM
IC50 (KDR): 0.3 to 3 µM
Structure (SMILES): COc1cc(Nc2nc3c(-c4cn[nH]c4)nccn3n2)cc(OC)c1 [Example C301, (3,5-Dimethoxy-phenyl)-[8-(1H-pyrazol-4-yl)-[1,2,4]triazolo[1,5-a]pyrazin-2-yl]-amine]

IC50 (Syk): < 0.3 µM
IC50 (Src): 0.3 to 3 µM
IC50 (KDR): < 0.3 µM
Structure (SMILES): NC(=O)c1cccc(-c2nccn3nc(Nc4ccc(N5CCOCC5)cc4)nc23)c1 [Example C277, 3-[2-(4-Morpholin-4-yl-phenylamino)-[1,2,4]triazolo[1,5-a]pyrazin-8-yl]-benzamide]

IC50 (Syk): < 0.3 µM
IC50 (Src): 0.3 to 3 µM
IC50 (KDR): 0.3 to 3 µM
Structure (SMILES): COc1cc(Nc2nc3c(-c4cccc(CN)c4)nccn3n2)cc(OC)c1 [Example C114, [8-(3-Aminomethyl-phenyl)-[1,2,4]triazolo[1,5-a]pyrazin-2-yl]-(3,5-dimethoxy-phenyl)-amine]

IC50 (Syk): < 0.3 µM
IC50 (Src): 0.3 to 3 µM
IC50 (KDR): < 0.3 µM
Structure (SMILES): COc1cc(Nc2nc3c(-c4cccc(C(N)=O)c4)nccn3n2)cc(OC)c1 [Example C276, 3-[2-(3,5-Dimethoxy-phenylamino)-[1,2,4]triazolo[1,5-a]pyrazin-8-yl]-benzamide]

IC50 (Syk): 0.3 to 3 µM
IC50 (Src): 3 to 50 µM
IC50 (KDR): 3 to 50 µM
Structure (SMILES): FC(F)(F)c1cccc(Nc2nc3c(-c4cccnc4)nccn3n2)c1 [Example C20, (8-Pyridin-3-yl-[1,2,4]triazolo[1,5-a]pyrazin-2-yl)-(3-trifluoromethyl-phenyl)-amine]

IC50 (Syk): 0.3 to 3 µM
IC50 (Src): 0.3 to 3 µM
IC50 (KDR): 0.3 to 3 µM
Structure (SMILES): Cc1cc(C)cc(Nc2nc3c(-c4cccnc4)nccn3n2)c1 [Example C4, (3,5-Dimethyl-phenyl)-(8-pyridin-3-yl-[1,2,4]triazolo[1,5-a]pyrazin-2-yl)-amine]

IC50 (ZAP-70): 3 to 50 µM
IC50 (Syk): < 0.3 µM
IC50 (Src): 0.3 to 3 µM
Structure (SMILES): COc1cc(Nc2nc3c(-c4ccc5cccnc5c4)nccn3n2)cc(OC)c1 [Example C264, (3,5-Dimethoxy-phenyl)-(8-quinolin-7-yl-[1,2,4]triazolo[1,5-a]pyrazin-2-yl)-amine]
